How the values were obtained:
PDE1A = PDE1A (Homo sapiens (Human), UniProt P54750); assay: PDE1 inhibition assay (PDE1A), SPA with tritium labelled cAMP; assay type: biochemical; details: 15 nM tritium labelled cAMP, 1 hr at room temperature
Description: (§1) Table 1 lists the IC50 value for inhibition of PDE1 by the compounds of the invention. […] PDE1 assays are described in the Experimental Section.

PDE1B = PDE1B (Homo sapiens (Human), UniProt Q01064); assay: PDE1 inhibition assay (PDE1B), SPA with tritium labelled cAMP; assay type: biochemical; details: 15 nM tritium labelled cAMP, 1 hr at room temperature
Sequence of PDE1B (Q01064 whole entry): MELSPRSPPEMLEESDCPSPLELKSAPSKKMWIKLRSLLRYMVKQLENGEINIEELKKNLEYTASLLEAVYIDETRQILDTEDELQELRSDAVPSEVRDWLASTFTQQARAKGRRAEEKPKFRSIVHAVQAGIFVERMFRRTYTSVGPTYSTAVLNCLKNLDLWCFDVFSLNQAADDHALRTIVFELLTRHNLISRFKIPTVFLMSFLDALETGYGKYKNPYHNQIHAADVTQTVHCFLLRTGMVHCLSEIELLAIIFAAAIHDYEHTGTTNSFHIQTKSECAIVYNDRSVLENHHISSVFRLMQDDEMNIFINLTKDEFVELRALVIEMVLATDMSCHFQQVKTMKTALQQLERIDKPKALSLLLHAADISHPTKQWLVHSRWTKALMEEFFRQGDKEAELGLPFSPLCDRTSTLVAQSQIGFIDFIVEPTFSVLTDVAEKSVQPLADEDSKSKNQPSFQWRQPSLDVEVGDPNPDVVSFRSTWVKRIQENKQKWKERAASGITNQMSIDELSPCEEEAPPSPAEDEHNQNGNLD
Description: as §1

Sequence of PDE1A (P54750 whole entry): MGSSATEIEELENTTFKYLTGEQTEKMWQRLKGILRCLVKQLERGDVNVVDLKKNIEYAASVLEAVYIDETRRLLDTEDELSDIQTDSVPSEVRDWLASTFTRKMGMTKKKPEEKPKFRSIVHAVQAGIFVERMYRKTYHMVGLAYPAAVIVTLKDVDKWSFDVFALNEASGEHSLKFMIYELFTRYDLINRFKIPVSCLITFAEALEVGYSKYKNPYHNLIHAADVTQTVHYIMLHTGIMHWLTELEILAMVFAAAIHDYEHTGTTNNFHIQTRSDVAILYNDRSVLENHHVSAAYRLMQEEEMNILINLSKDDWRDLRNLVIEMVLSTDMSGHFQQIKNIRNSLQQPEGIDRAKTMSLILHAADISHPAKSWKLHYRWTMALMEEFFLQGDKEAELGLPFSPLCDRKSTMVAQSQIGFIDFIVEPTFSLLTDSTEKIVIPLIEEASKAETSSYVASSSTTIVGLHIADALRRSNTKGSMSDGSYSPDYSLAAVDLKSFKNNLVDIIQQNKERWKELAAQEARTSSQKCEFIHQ

## CCOc1ncccc1-c1cc(NCc2ccncc2OC)c2c(n1)c(C)nn2C(C)C [Example 172, 5-(2-ethoxy-3-pyridyl)-1-isopropyl-N-[(3-methoxy-4-pyridyl)methyl]-3-methyl-pyrazolo[4,3-b]pyridin-7-amine]
PDE1A
  IC50: 40 nM
PDE1B
  IC50: 5.5 nM

— patent US10512632B2, “1 H-pyrazolo[4,3-B]pyridines as PDE1 inhibitors” (priority 2016, dated 2019)
